Here are results for three compounds from ChEMBL document CHEMBL1133289, “The binding of cocaine to cyclodextrins” (Bioorg Med Chem Lett, 2000).

SMILES strings stand for the structures.

Assay [1] can be described thus: Binding constant towards Beta-cyclodextrin.
A short description of assay [2]: Binding constant towards gamma-cyclodextrin.
Assay [3] can be described thus: (§1) Binding constant towards Beta-cyclodextrin at pH 7.4 in unbuffered water at 25 C in a one-to-one complex.
The nature of assay [4]: as §1. This is another data set of the same source.
Assay [5] is described as follows: Binding constant towards alpha-cyclodextrin.

Compound `CN1[C@@H]2CC[C@H]1C[C@H](OC(=O)c1ccccc1)C2` (stereo in doubt; 9) came in with a Binding constant in assay [1] of 500 M⁻¹.
In assay [1], `CN1[C@@H]2CC[C@H]1C[C@H](OC(=O)c1ccccc1)C2` (stereo in doubt; 8) came in with a Binding constant of 1120 M⁻¹.
Broadly, the Kd is the free concentration of one partner at which half of the binding sites on the other are occupied at equilibrium, for simple one-to-one binding. Low values mean tighter binding, high ones weaker binding. `COC(=O)[C@H]1[C@@H](OC(=O)c2ccccc2)C[C@@H]2CC[C@H]1N2C` [COCAINE]: the Binding constant in assay [2] was less than 60 M⁻¹; in assay [3], 570 M⁻¹; in assay [5], less than 60 M⁻¹. The Kd in assay [4] worked out at 1.75 mM.
